In patent US20230346770A1 (priority 2020, published 2023):

Assay: Phase 1 crossover drug-drug interaction study, plasma pharmacokinetics in healthy adults
Settings: for median tmax: both periods
[1] = Treatment B (with clarithromycin), Period 1
[2] = Treatment B (with clarithromycin), Period 2

Q: What does the source list for `CNCC[C@@](O)(c1cccc2ccccc12)[C@H](c1ccccc1)c1cc2cc(Br)ccc2nc1OC` [M2]?
A: AUC72h higher in Period 2 as compared to Period 1 (Treatment A): 41%; AUC240h higher in Period 2 as compared to Period 1 (Treatment A): 46%; Cmax higher in Period 2 as compared to Period 1 (Treatment A): 36%; Cmax (mean) (Treatment A (single dose 100 mg bedaquiline alone), Period 1, n=8): 12.0 ng/mL; Cmax (mean) (Treatment A (single dose 100 mg bedaquiline alone), Period 2, n=8): 16.3 ng/mL; AUC72 h (mean) (Treatment A, Period 1): 637 ng·h/mL; AUC240 h (mean) (Treatment A, Period 1): 1839 ng·h/mL; M/P ratio AUC72 h (M2/bedaquiline, corrected for molecular weight) (Treatment A, Period 1): 0.0481; M/P ratio AUC240 h (M2/bedaquiline, corrected for molecular weight) (Treatment A, Period 1): 0.110; M/P ratio Cmax (M2/bedaquiline, corrected for molecular weight) (Treatment A, Period 1): 0.00936; tmax (median) (Treatment A, Period 1): 12.00 h; AUC72 h (mean) (Treatment A, Period 2): 898 ng·h/mL; AUC240 h (mean) (Treatment A, Period 2): 2691 ng·h/mL; M/P ratio AUC72 h (M2/bedaquiline, corrected for molecular weight) (Treatment A, Period 2): 0.0670; M/P ratio AUC240 h (M2/bedaquiline, corrected for molecular weight) (Treatment A, Period 2): 0.141; M/P ratio Cmax (M2/bedaquiline, corrected for molecular weight) (Treatment A, Period 2): 0.0142; tmax (median) (Treatment A, Period 2): 12.00 h; median tmax (Treatment A): 12.00 h; AUC72h higher in Period 2 as compared to Period 1 (Treatment B): 2.1 fold; AUC240h higher in Period 2 as compared to Period 1 (Treatment B): 2.1 fold; Cmax higher in Period 2 as compared to Period 1 (Treatment B): 2.2 fold; Cmax (mean) (Treatment B (100 mg bedaquiline on Day 5 of clarithromycin 500 mg q12h Days 1-14), Period 1, n=8): 4.66 ng/mL; Cmax (mean) (Treatment B (100 mg bedaquiline on Day 5 of clarithromycin 500 mg q12h Days 1-14), Period 2, n=8): 9.89 ng/mL; AUC72 h (mean) [1]: 260 ng·h/mL; AUC240 h (mean) [1]: 886 ng·h/mL; M/P ratio AUC72 h (M2/bedaquiline, corrected for molecular weight) [1]: 0.0183; M/P ratio AUC240 h (M2/bedaquiline, corrected for molecular weight) [1]: 0.0460; M/P ratio Cmax (M2/bedaquiline, corrected for molecular weight) [1]: 0.0039; tmax (median) [1]: 35.92 h; AUC72 h (mean) [2]: 543 ng·h/mL; AUC240 h (mean) [2]: 1884 ng·h/mL; M/P ratio AUC72 h (M2/bedaquiline, corrected for molecular weight) [2]: 0.0347; M/P ratio AUC240 h (M2/bedaquiline, corrected for molecular weight) [2]: 0.0881; M/P ratio Cmax (M2/bedaquiline, corrected for molecular weight) [2]: 0.00798; tmax (median) [2]: 23.90 h; median tmax (Treatment B (with clarithromycin)): 23.91 h; reduction of AUC72h with clarithromycin co-administration (Treatment B vs Treatment A): 51%; reduction of AUC240h with clarithromycin co-administration (Treatment B vs Treatment A): 42%; reduction of Cmax with clarithromycin co-administration (Treatment B vs Treatment A): 52%; reduction of M/P ratio AUC72h with clarithromycin co-administration (Treatment B vs Treatment A): 56%; reduction of M/P ratio AUC240h with clarithromycin co-administration (Treatment B vs Treatment A): 49%; reduction of M/P ratio Cmax with clarithromycin co-administration (Treatment B vs Treatment A): 52%; time of maximum mean plasma concentration (both treatment groups): 12 hours post-dose; plasma concentration quantifiable until (both treatments): 240 hours post-dose; pre-dose plasma concentration in Period 2 relative to Cmax after the Period 2 single dose (prior to the Period 2 single dose of bedaquiline (carry-over)): > 10%
